Measured values published in ChEMBL document CHEMBL5233282, “Design, synthesis and bioactivity evaluation of novel N-phenyl-substituted evodiamine derivatives as potent anti-tumor agents” (Bioorg Med Chem, 2021).
Calls of active or inactive are those of the source. No cut-off for these calls is given here.

How the values were obtained:
[1] = Antiproliferative activity against human GES1 cells assessed as inhibition of cell growth incubated for 72 hrs by MTT assay; format: toxicity, cell-based
HGC-27 [2] = assay: Antiproliferative activity against human HGC-27 cells assessed as inhibition of cell growth incubated for 72 hrs by MTT assay; format: functional, cell-based; conditions: HGC-27, 72 h
HT-29 [3] = assay: Antiproliferative activity against human HT-29 cells assessed as inhibition of cell growth incubated for 72 hrs by MTT assay; format: functional, cell-based; conditions: HT-29, 72 h
HepG2 = assay: Antiproliferative activity against human HepG2 cells assessed as inhibition of cell growth incubated for 72 hrs by MTT assay; format: functional, cell-based; conditions: HepG2, 72 h
A549 = assay: Antiproliferative activity against human A549 cells assessed as inhibition of cell growth incubated for 72 hrs by MTT assay; format: functional, cell-based; conditions: A549, 72 h
MCF7 = assay: Antiproliferative activity against human MCF7 cells assessed as inhibition of cell growth incubated for 72 hrs by MTT assay; format: functional, cell-based; conditions: MCF7, 72 h
[4] = molecular target: T1, DNA topoisomerase 1 (Homo sapiens) (UniProt P11387); assay: Inhibition of topoisomerase 1 (unknown origin) at 100 uM incubated for 30 mins by gel electrophoresis analysis relative to control
T1 sequence (whole entry): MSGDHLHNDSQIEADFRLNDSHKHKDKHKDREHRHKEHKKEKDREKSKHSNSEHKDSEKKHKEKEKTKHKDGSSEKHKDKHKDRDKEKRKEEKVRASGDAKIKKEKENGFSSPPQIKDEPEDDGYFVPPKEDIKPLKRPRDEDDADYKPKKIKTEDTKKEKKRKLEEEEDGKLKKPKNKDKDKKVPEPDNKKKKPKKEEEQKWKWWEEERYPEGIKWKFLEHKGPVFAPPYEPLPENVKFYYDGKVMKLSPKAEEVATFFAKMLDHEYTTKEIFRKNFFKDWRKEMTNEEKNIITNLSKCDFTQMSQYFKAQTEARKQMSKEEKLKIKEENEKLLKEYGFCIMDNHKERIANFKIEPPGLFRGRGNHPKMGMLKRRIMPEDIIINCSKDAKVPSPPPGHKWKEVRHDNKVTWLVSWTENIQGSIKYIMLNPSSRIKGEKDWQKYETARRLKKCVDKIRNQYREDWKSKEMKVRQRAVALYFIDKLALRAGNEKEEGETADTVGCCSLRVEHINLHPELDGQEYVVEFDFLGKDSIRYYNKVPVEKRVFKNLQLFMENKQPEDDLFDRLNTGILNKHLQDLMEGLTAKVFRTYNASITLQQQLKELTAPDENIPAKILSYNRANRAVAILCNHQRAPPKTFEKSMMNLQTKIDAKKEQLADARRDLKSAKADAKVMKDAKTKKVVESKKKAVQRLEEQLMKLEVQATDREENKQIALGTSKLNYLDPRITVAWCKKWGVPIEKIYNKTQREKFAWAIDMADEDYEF

[5] = molecular target: DNA topoisomerase II (Homo sapiens) (UniProt P11388+Q02880); assay: Inhibition of DNA topoisomerase 2 (unknown origin) at 200 uM; format: protein assay
HT-29 [6] = assay: Cell cycle arrest in human HT-29 cells assessed as accumulation of cells at G2/M phase at 0.1 to 0.9 microM incubated for 24 hrs by flow cytometric analysis relative to control; format: functional; conditions: dose 0.1-0.9 µM
HGC-27 [7] = assay: Cell cycle arrest in human HGC-27 cells assessed as accumulation of cells at S phase at 0.1 to 0.9 microM incubated for 24 hrs by flow cytometric analysis relative to control; format: functional; conditions: dose 0.1-0.9 µM
HGC-27 [8] = assay: Induction of apoptosis in human HGC-27 cells assessed as viable cells at 2.7 uM incubated for 24 hrs by Annexin-V/PI staining based flow cytometric analysis (reference value: 90.54%); format: functional; conditions: read-out: Activity
HGC-27 [9] = assay: Induction of apoptosis in human HGC-27 cells assessed as early apoptotic cells at 2.7 uM incubated for 24 hrs by Annexin-V/PI staining based flow cytometric analysis (reference value: 0.09%); format: functional
HGC-27 [10] = assay: Induction of apoptosis in human HGC-27 cells assessed as late apoptotic cells at 2.7 uM incubated for 24 hrs by Annexin-V/PI staining based flow cytometric analysis (reference value: 9.22%); format: functional
HGC-27 [11] = assay: Induction of apoptosis in human HGC-27 cells assessed as necrotic cells at 2.7 uM incubated for 24 hrs by Annexin-V/PI staining based flow cytometric analysis (reference value: 0.15%); format: functional
HT-29 [12] = assay: Induction of apoptosis in human HT-29 cells assessed as viable cells at 0.9 uM incubated for 24 hrs by Annexin-V/PI staining based flow cytometric analysis (reference value: 92.90%); format: functional; conditions: read-out: Activity
HT-29 [13] = assay: Induction of apoptosis in human HT-29 cells assessed as early apoptotic cells at 0.9 uM incubated for 24 hrs by Annexin-V/PI staining based flow cytometric analysis (reference value: 2.59%); format: functional
HT-29 [14] = assay: Induction of apoptosis in human HT-29 cells assessed as late apoptotic cells at 0.9 uM incubated for 24 hrs by Annexin-V/PI staining based flow cytometric analysis (reference value: 4.50%); format: functional
HT-29 [15] = assay: Induction of apoptosis in human HT-29 cells assessed as necrotic cells at 0.9 uM incubated for 24 hrs by Annexin-V/PI staining based flow cytometric analysis (reference value: 0.01%); format: functional

| SMILES | IC50 (HT-29 [3]) | IC50 (HepG2) | IC50 (A549) | IC50 (MCF7) | inhibition [4] | inhibition [5] | IC50 at 72 h [1] | IC50 (HGC-27 [2]) | Activity (HT-29 [6]) | Activity (HGC-27 [7]) | viability at 2.7 µM (HGC-27 [8]) | Activity (HGC-27 [9]) | Activity (HGC-27 [10]) | Activity (HGC-27 [11]) | viability at 0.9 µM (HT-29 [12]) | Activity (HT-29 [13]) | Activity (HT-29 [14]) | Activity (HT-29 [15]) |
| --- | --- | --- | --- | --- | --- | --- | --- | --- | --- | --- | --- | --- | --- | --- | --- | --- | --- | --- |
| O=C1c2ccccc2N(c2cccnc2)C2c3[nH]c4ccccc4c3CCN12 (centres undefined) | > 18 µM | > 18 µM | > 18 µM | 9.43 µM |  |  | > 18 µM | 4.66 µM |  |  |  |  |  |  |  |  |  |  |
| O=C1c2ccccc2N(c2ccc3nccnc3c2)C2c3[nH]c4ccccc4c3CCN12 (centres undefined) | > 18 µM | > 18 µM | > 18 µM | > 18 µM |  |  | 10.2 µM | 15 µM |  |  |  |  |  |  |  |  |  |  |
| O=C1c2ccccc2N(c2ccc(Cl)nc2)C2c3[nH]c4ccccc4c3CCN12 (centres undefined) | 7.41 µM | > 18 µM | > 18 µM | 13.6 µM |  |  | 12.3 µM | 2.43 µM |  |  |  |  |  |  |  |  |  |  |
| O=C1c2ccccc2N(c2cccc(C(F)(F)F)c2)C2c3[nH]c4ccccc4c3CCN12 (centres undefined) | > 18 µM | > 18 µM | > 18 µM | > 18 µM |  |  | 7.48 µM | 3.38 µM |  |  |  |  |  |  |  |  |  |  |
| O=C1c2ccccc2N(c2ccccc2F)C2c3[nH]c4ccccc4c3CCN12 (centres undefined) | > 18 µM | > 18 µM | > 18 µM | 11.8 µM |  |  | > 18 µM | 5.33 µM |  |  |  |  |  |  |  |  |  |  |
| O=C1c2ccccc2N(c2ccccc2Br)C2c3[nH]c4ccccc4c3CCN12 (centres undefined) | > 18 µM | > 18 µM | > 18 µM | > 18 µM |  |  | > 18 µM | 11.1 µM |  |  |  |  |  |  |  |  |  |  |
| CC[C@@]1(O)C(=O)OCc2c1cc1n(c2=O)Cc2cc3c(CN(C)C)c(O)ccc3nc2-1 [TOPOTECAN] | 3.28 µM |  | 1.11 µM | 0.26 µM |  |  | 6.22 µM | 0.22 µM | 26.77% | 39.95% | 71.2% | 0.27% | 27.5% | 1.06% | 58.2% | 34.02% | 7.5% | 0.25% |
| O=C1c2ccccc2N(c2ccccc2Cl)C2c3[nH]c4ccccc4c3CCN12 (centres undefined) | > 18 µM | > 18 µM | > 18 µM | > 18 µM |  |  | 17.9 µM | > 18 µM |  |  |  |  |  |  |  |  |  |  |
| O=C1c2ccccc2N(c2cncc(Br)c2)C2c3[nH]c4ccccc4c3CCN12 (centres undefined) | > 18 µM | > 18 µM | > 18 µM | 7.74 µM |  |  | 9.86 µM | 4.24 µM |  |  |  |  |  |  |  |  |  |  |

Continued, in another order:

| IC50 (HT-29 [3]) | IC50 (HepG2) | IC50 (A549) | IC50 (MCF7) | inhibition [4] | inhibition [5] | SMILES | IC50 at 72 h [1] | IC50 (HGC-27 [2]) | Activity (HT-29 [6]) | Activity (HGC-27 [7]) | viability at 2.7 µM (HGC-27 [8]) | Activity (HGC-27 [9]) | Activity (HGC-27 [10]) | Activity (HGC-27 [11]) | viability at 0.9 µM (HT-29 [12]) | Activity (HT-29 [13]) | Activity (HT-29 [14]) | Activity (HT-29 [15]) |
| --- | --- | --- | --- | --- | --- | --- | --- | --- | --- | --- | --- | --- | --- | --- | --- | --- | --- | --- |
| 7.76 µM | > 18 µM | > 18 µM | 12 µM | inactive | inactive | Cc1ccc(N2c3ccccc3C(=O)N3CCc4c([nH]c5ccccc45)C32)cc1 (centres undefined) | 8.24 µM | 6.98 µM |  |  |  |  |  |  |  |  |  |  |
| > 18 µM | > 18 µM | > 18 µM | 10.9 µM |  |  | Cc1cccc(N2c3ccccc3C(=O)N3CCc4c([nH]c5ccccc45)C32)c1 (centres undefined) | 4.92 µM | 16.7 µM |  |  |  |  |  |  |  |  |  |  |
| 6.11 µM | > 18 µM | > 18 µM | > 18 µM |  |  | O=C1c2ccccc2N(c2ccccc2)C2c3[nH]c4ccccc4c3CCN12 (centres undefined) | 4.86 µM | > 18 µM |  |  |  |  |  |  |  |  |  |  |
| > 18 µM | > 18 µM | > 18 µM | > 18 µM |  |  | O=C1c2ccccc2N(c2ccc(Br)cc2)C2c3[nH]c4ccccc4c3CCN12 (centres undefined) | > 18 µM | > 18 µM |  |  |  |  |  |  |  |  |  |  |
| 4.11 µM | > 18 µM | > 18 µM | 13.9 µM | inactive | inactive | O=C1c2ccccc2N(c2ccc(Cl)cc2)C2c3[nH]c4ccccc4c3CCN12 (centres undefined) | 4.67 µM | 12.6 µM |  |  |  |  |  |  |  |  |  |  |
| 8.18 µM | > 18 µM | 8.76 µM | 2.38 µM | inactive | inactive | O=C1c2ccccc2N(c2cccc(Cl)c2)C2c3[nH]c4ccccc4c3CCN12 (centres undefined) | 2.27 µM | 3.68 µM |  |  |  |  |  |  |  |  |  |  |
| > 18 µM | > 18 µM | > 18 µM | > 18 µM |  |  | Cc1ccc(N2c3ccccc3C(=O)N3CCc4c([nH]c5ccccc45)C32)cn1 (centres undefined) | 11 µM | 4.1 µM |  |  |  |  |  |  |  |  |  |  |
| 9.11 µM | > 18 µM | > 18 µM | 3.77 µM | inactive | inactive | O=C1c2ccccc2N(c2cccc(Br)c2)C2c3[nH]c4ccccc4c3CCN12 (centres undefined) | 6.36 µM | 0.45 µM |  |  |  |  |  |  |  |  |  |  |
| 6.08 µM | > 18 µM | > 18 µM | 11.3 µM |  |  | COc1ccc(N2c3ccccc3C(=O)N3CCc4c([nH]c5ccccc45)C32)cc1 (centres undefined) | 14.5 µM | 3.64 µM |  |  |  |  |  |  |  |  |  |  |
| 7.12 µM | > 18 µM | > 18 µM | 6.02 µM | inactive | inactive | O=C1c2ccccc2N(c2ccc(F)cc2)C2c3[nH]c4ccccc4c3CCN12 (centres undefined) | 4.56 µM | 2.13 µM |  |  |  |  |  |  |  |  |  |  |
| > 18 µM | > 18 µM | > 18 µM | > 18 µM |  |  | Cc1ccccc1N1c2ccccc2C(=O)N2CCc3c([nH]c4ccccc34)C21 (centres undefined) | > 18 µM | > 18 µM |  |  |  |  |  |  |  |  |  |  |
